One may read the half-life as the time in which the quantity being followed falls by half. For orientation: pIC50 means −log10 of the IC50, conventionally taken in molar units.

pIC50: −log10 of the molar value.

Data set [1] relates to human phosphodiesterase III (PDE III). Nature of the data set: PDE III inhibition. It counts as biochemical. Conditions: more potent than anagrelide. An excerpt:
In early volunteer trials, the most frequently reported adverse effects AEs other than headache were palpitations, postural dizziness and nausea. During patient studies, the most frequently reported drug-related AEs were headache, palpitations, oedema/fluid retention, nausea/vomiting, diarrhea, dizziness and abdominal pain. These effects are all likely to arise from the secondary, cardiovascular pharmacology associated with anagrelide resulting from its inhibitory effects on human phosphodiesterase III (PDE III). […] Inhibition of myocardial PDE III leads to positive inotropy (increasing of the force of contractions of the heart), increased chronotropy (increase in heart rate), and peripheral vasodilatation. Such cardiovascular manifestations of this inhibition are typically seen with the classical positive inotropes, milrinone and enoximone, and exploited in the short-term acute treatment of congestive heart failure. However, in the treatment of a so-called silent disease (i.e., asymptomatic) such as ET, the cardiovascular side-effects of palpitations and tachycardia associated with anagrelide limit its utility and a significant proportion of patients—reportedly between 25 and 50%—fail to tolerate the drug during long term treatment.
The PDE III inhibitory properties of anagrelide are quite distinct from its platelet lowering anti-megakaryocytic effects. […]

The nature of data set [2]: Pharmacokinetics in humans. The data set is classed as in vivo, human. To be noted: after anagrelide treatment. The text has this: The PDE III inhibitory properties of anagrelide are quite distinct from its platelet lowering anti-megakaryocytic effects. Indeed studies have shown no correlation between potency as a PDE III inhibitor and anti-megakaryocytic effects for anagrelide and its principal pharmacologically active metabolite, 3-hydroxyanagrelide (3-OH anagrelide or 3-HA, formerly known as SPD604 or BCH24426). […] Anagrelide's active metabolite, 3-HA, is present in vivo in amounts greatly exceeding those of the parent drug with typical exposures being 2-3 fold greater. Thus by implication 3-OH anagrelide is likely to be a major contributor to the pharmacological actions of the drug.
The metabolism of anagrelide generally proceeds extremely rapidly, resulting in a less than ideal pharmacokinetic profile of the drug. […] This, combined with the side-effects profile, can lead to poor patient compliance. Furthermore, anagrelide undergoes a large first pass effect (>50%) leading to considerable intersubject variation in achieved exposures and, therefore, potentially variable drug response. Also, exposure to the pharmacologically active metabolite varies dramatically between patients since its formation is dependent on CYP1A, an enzyme whose expression is highly dependent on exposure to inducing agents such as cigarette smoke. […]

Data set [3] concerns TPO-induced megakaryocytopoiesis. To be noted: cited from earlier work.
For data set [4] the following is noted: cited from earlier work.
In data set [5] the target is human phosphodiesterase III (PDE III). Conditions: cited from earlier work.
The subject of data set [6] is erythroid or myelomonocytic differentiation. To be noted: stimulated by erythropoietin or granulocyte-macrophage colony-stimulating factor; cited from earlier work.
Data set [7] has as its system platelet count. Conditions: patients with thrombocythemia secondary to a myeloproliferative disorder; cited from earlier work.

`O=C1NC2=Nc3ccc(Cl)c(Cl)c3CN2C1O` (stereo not shown) [3-hydroxyanagrelide]: the “potency as PDE III inhibitor relative to anagrelide” value in data set [1] is reported as “over 40 fold”. The “in vivo exposure relative to parent drug” value in data set [2] is listed as 2-3 fold. Besides, the “potency in inhibition of megakaryocytopoiesis relative to anagrelide” value in data set [3] is listed as “no more potent than the parent drug”. Also, in data set [4] (typical), the half-life is 2.5 h.

`O=C1CN2Cc3c(ccc(Cl)c3Cl)N=C2N1` [Anagrelide, 6,7-dichloro-1,5-dihydroimidazo[2,1-b]-quinazolin-2(3H)-one]: the pIC50 in data set [3] (in vitro, human megakaryocytopoiesis, read-out: estimated IC50, inhibition of TPO-induced megakaryocytopoiesis) was about 7.59; in data set [5], about 7.54. Further, the “effect on erythroid or myelomonocytic differentiation” value in data set [6] is recorded as “does not affect”. Besides, in data set [7], the “time to complete response (platelet count ≦600×10^9/L)” value is recorded as 4 to 12 weeks. The first pass effect in data set [4] (in vivo) was over 50%.

On to `Cc1[nH]c(=O)c(C#N)cc1-c1ccncc1` [milrinone], for which the pIC50 in data set [5] is 6.46 to 6.77.

Source of the values: patent US20110071171A1, “2H- PYRIMIDO [2, 1-B] QUINAZOLIN-2-ONE DERIVATIVES AND THEIR USE AS PLATELET ANTI-AGGREGATIVE AGENTS” (Shire LLC, priority 2008, published 2011).
